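Following 48 hours of exposure in 96-well plates, responses at five concentrations were used to interpolate endpoints linearly. GI50: concentration for 50% inhibition of growth. TGI: concentration producing complete growth inhibition.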
Experiments:
Test in all cases: growth of human tumour cells (NCI), 48 h
[1] = tested on: SK-MEL-5 melanoma
[2] = tested on: SR leukemia
[3] = tested on: SF-268 CNS
[4] = tested on: MCF7 breast
[5] = tested on: HCC-2998 colon
[6] = tested on: EKVX NSCLC
[7] = tested on: SK-OV-3 ovarian
[8] = tested on: OVCAR-3 ovarian
[9] = tested on: ACHN renal
[10] = tested on: RPMI-8226 leukemia

SMILES: C=C(CCC(C)C1CCC2C3=C(C(=O)CC21C)C1(C)CCC(=O)[C@@H](C)C1CC3=O)C(C)C(=O)O (some centres not stated)
- TGI [1]: > 100 µM
- TGI [2]: 74.8 µM
- TGI [3]: > 100 µM
- TGI [4]: > 100 µM
- TGI [5]: > 100 µM
- TGI [6]: > 100 µM
- TGI [7]: 5.46 µM
- TGI [8]: > 100 µM
- TGI [9]: 88.6 µM

SMILES: CCOP(=O)(OCC)C(Nc1cccc(F)c1)c1ccccc1 (configuration not stated)
- TGI [1]: > 100 µM
- TGI [2]: > 100 µM
- TGI [3]: > 100 µM
- TGI [4]: > 100 µM
- TGI [5]: > 100 µM
- TGI [10]: > 100 µM
- TGI [6]: > 100 µM
- TGI [7]: > 100 µM
- TGI [8]: > 100 µM
- TGI [9]: > 100 µM

SMILES: CO/C(=N\N=C\c1cccc(Cl)c1)c1ccncc1
- TGI [2]: > 10 µM
- TGI [3]: > 10 µM
- TGI [4]: > 10 µM
- TGI [5]: > 10 µM
- TGI [10]: > 10 µM
- TGI [6]: > 10 µM
- TGI [8]: > 10 µM
- TGI [9]: > 10 µM

SMILES: NC(=S)N/N=C\c1ccc(OCc2cccc(COc3ccc(/C=N/NC(N)=S)cc3)n2)cc1
- TGI [1]: 24.4 µM
- TGI [2]: > 100 µM
- TGI [3]: > 100 µM
- TGI [4]: > 100 µM
- TGI [10]: > 100 µM
- TGI [6]: > 100 µM
- TGI [7]: > 100 µM
- TGI [8]: > 100 µM
- TGI [9]: > 100 µM

SMILES: Cc1nc2c3c(ncn2n1)Oc1c(c(-c2ccccc2)nn1-c1ccccc1)C3c1ccc(Cl)cc1 (configuration not stated)
- TGI [2]: > 100 µM
- TGI [3]: > 100 µM
- TGI [4]: > 100 µM
- TGI [5]: > 100 µM
- TGI [10]: > 100 µM
- TGI [6]: > 100 µM
- TGI [7]: > 100 µM
- TGI [8]: > 100 µM
- TGI [9]: > 100 µM

SMILES: O=[N+]([O-])c1ccc(S[C@@H]2[C@H]3c4c(-c5ccccc5)[nH]c(-c5ccccc5)c4[C@@H]2C[C@H]3Cl)cc1
- TGI [1]: 23.5 µM
- TGI [2]: > 100 µM
- TGI [3]: 25.7 µM
- TGI [4]: 16.5 µM
- TGI [7]: > 100 µM
- TGI [8]: 35.8 µM
- TGI [9]: > 100 µM

SMILES: CC1(C)OCC(C(O)C2OC(C)(C)OC2C=O)O1 (configuration not stated)
- TGI [1]: > 100 µM
- TGI [2]: > 100 µM
- TGI [3]: > 100 µM
- TGI [4]: > 100 µM
- TGI [10]: > 100 µM
- TGI [6]: > 100 µM
- TGI [7]: > 100 µM
- TGI [8]: > 100 µM
- TGI [9]: > 100 µM

SMILES: Cc1cc(/C=C\c2ccc3ccccc3[n+]2C)c(O)c2ncccc12
- GI50 [2]: 0.168 µM
- TGI [2]: > 100 µM
- GI50 [3]: 0.486 µM
- TGI [3]: 8.63 µM
- GI50 [4]: 0.283 µM
- GI50 [5]: 0.112 µM
- TGI [5]: 0.593 µM
- GI50 [6]: 0.671 µM
- TGI [6]: 7.82 µM
- GI50 [7]: 1.68 µM
- TGI [7]: 4.84 µM
- GI50 [8]: 0.176 µM
- TGI [8]: 0.569 µM
- GI50 [9]: 0.584 µM
- TGI [9]: 2.15 µM

SMILES: Cc1cccc2c1[nH]c1[nH]c(=O)[nH]c(=O)c12
- TGI [1]: > 100 µM
- TGI [2]: > 100 µM
- TGI [3]: > 100 µM
- TGI [4]: > 100 µM
- TGI [10]: > 100 µM
- TGI [6]: > 100 µM
- TGI [7]: > 100 µM
- TGI [8]: > 100 µM
- TGI [9]: > 100 µM

SMILES: O=C(NCc1cccc(C(F)(F)F)c1)c1cc2sccc2nc1C(F)(F)F
- TGI [1]: > 100 µM
- TGI [2]: > 100 µM
- TGI [3]: > 100 µM
- TGI [4]: > 100 µM
- TGI [10]: > 100 µM
- TGI [6]: > 100 µM
- TGI [7]: > 100 µM
- TGI [8]: > 100 µM
- TGI [9]: > 100 µM

SMILES: COc1nc2c(c(=O)n1C)N[C@H]1[C@H](OC(C)=O)[C@@H](OC(C)=O)CO[C@H]1N2
- TGI [1]: > 100 µM
- TGI [2]: > 100 µM
- TGI [3]: > 100 µM
- TGI [4]: > 100 µM
- TGI [10]: > 100 µM
- TGI [6]: > 100 µM
- TGI [7]: > 100 µM
- TGI [8]: > 100 µM
- TGI [9]: > 100 µM

SMILES: CN(C)c1nc(N(C)C)nc(N(C)C23CC4CC(CC(C4)C2)C3)n1
- TGI [2]: > 100 µM
- TGI [3]: > 100 µM
- TGI [4]: > 100 µM
- TGI [5]: 85.3 µM
- TGI [10]: 74.9 µM
- TGI [6]: > 100 µM
- TGI [7]: > 100 µM
- TGI [8]: > 100 µM
- TGI [9]: > 100 µM

SMILES: CCOC(=O)C(=[N+]=[N-])C(=O)Nc1nn2nnnc2c2ccccc12
- TGI [1]: > 100 µM
- TGI [2]: > 100 µM
- TGI [4]: > 100 µM
- TGI [5]: > 100 µM
- TGI [10]: > 100 µM
- TGI [6]: > 100 µM
- TGI [7]: > 100 µM
- TGI [8]: > 100 µM
- TGI [9]: > 100 µM

SMILES: CN(C)CCNC(=O)c1ccc(NCCCN(C)CCCNc2ccc3c(=O)n(CCN(C)C)c(=O)n4c5ccccc5c(=O)c2c34)c2c(=O)c3ccccc3[nH]c12
- TGI [1]: 1.22 µM
- TGI [3]: 0.326 µM
- TGI [4]: 0.344 µM
- TGI [5]: 0.146 µM
- TGI [10]: 0.157 µM
- TGI [6]: 0.567 µM
- TGI [7]: 0.411 µM
- TGI [8]: 0.23 µM
- TGI [9]: 0.653 µM

SMILES: c1ccc(CCN2CCc3[nH]c4ccccc4c3C2)cc1
- TGI [1]: 33.9 µM
- TGI [2]: 75.7 µM
- TGI [3]: > 100 µM
- TGI [4]: 40.9 µM
- TGI [5]: 30.5 µM
- TGI [10]: > 10 µM
- TGI [6]: > 100 µM
- TGI [7]: > 100 µM
- TGI [9]: 96.7 µM

SMILES: CC(=O)OCC1OC(n2c3c(c(-c4cccc5ccccc45)c(C#N)c2=S)CCCC3)C(OC(C)=O)C(OC(C)=O)C1OC(C)=O (configuration not stated)
- TGI [1]: > 100 µM
- TGI [2]: > 100 µM
- TGI [3]: > 100 µM
- TGI [4]: > 100 µM
- TGI [5]: > 100 µM
- TGI [6]: > 100 µM
- TGI [7]: > 100 µM
- TGI [8]: > 100 µM
- TGI [9]: > 100 µM

SMILES: Cc1ccc(C(=O)N/N=C(\N=Nc2cccc(Cl)c2)c2ccc(N(CCC#N)CCC#N)cc2C)cc1
- TGI [1]: > 100 µM
- TGI [2]: > 100 µM
- TGI [4]: > 100 µM
- TGI [5]: > 100 µM
- TGI [10]: > 100 µM
- TGI [6]: > 100 µM
- TGI [7]: > 100 µM
- TGI [8]: > 100 µM
- TGI [9]: > 100 µM

SMILES: Nc1nc(-c2ccccc2N=NN2CCCC2)nc2ccccc12
- TGI [1]: 17.8 µM
- TGI [2]: 2.38 µM
- TGI [3]: 21.5 µM
- TGI [4]: 55.9 µM
- TGI [10]: 6.46 µM
- TGI [6]: 23.8 µM
- TGI [7]: 21.4 µM
- TGI [8]: 4.35 µM
- TGI [9]: 11.7 µM

SMILES: Cc1cc(=O)n2nc(SCc3ccccc3)sc2n1
- TGI [1]: > 100 µM
- TGI [2]: > 100 µM
- TGI [3]: > 100 µM
- TGI [4]: > 100 µM
- TGI [5]: > 100 µM
- TGI [10]: > 100 µM
- TGI [7]: > 100 µM
- TGI [8]: > 100 µM
- TGI [9]: 56.2 µM

SMILES: CCCCc1cc2c(C)cc(=O)oc2c(O)c1O
- TGI [1]: 46.5 µM
- TGI [2]: 40.2 µM
- TGI [3]: > 100 µM
- TGI [4]: 45.7 µM
- TGI [5]: 15.7 µM
- TGI [10]: 43.3 µM
- TGI [6]: > 100 µM
- TGI [8]: 82 µM
- TGI [9]: 94 µM

SMILES: CN(C)/N=C/c1cn(C)c(=O)n(C)c1=O
- TGI [1]: > 100 µM
- TGI [3]: > 100 µM
- TGI [4]: > 100 µM
- TGI [5]: > 100 µM
- TGI [10]: > 100 µM
- TGI [6]: > 100 µM
- TGI [7]: > 100 µM
- TGI [8]: > 100 µM
- TGI [9]: > 100 µM

SMILES: O=CC(O)C(O)C(O)C(O)C(=O)NCCCCCCCCCCCCNC(=O)C(O)C(O)C(O)C(O)C=O (configuration not stated)
- TGI [1]: > 100 µM
- TGI [2]: > 100 µM
- TGI [3]: > 100 µM
- TGI [4]: > 100 µM
- TGI [5]: > 100 µM
- TGI [6]: > 100 µM
- TGI [7]: > 100 µM
- TGI [8]: > 100 µM
- TGI [9]: > 100 µM

Reference: PubChem BioAssay (NCI)
